Assay results taken from patent US20090054403A1, “Treatment of Post-Traumatic Stress Disorder” (priority 2007, published 2009).
Where two headings read alike, the source gives them in different places.

Tests used:
[1] = Pharmacokinetics after single oral dose in rats (plasma and brain); format: in vivo, rats (Crl: CD BR Vaf+); settings: for half-life: Crl: CD BR Vaf+, rat, plasma, read-out: elimination half-life (converted)
Procedure: Male rats (Crl: CD BR Vaf+) weighing 180-220 g were fasted overnight before dosing and until 4 hr after dosing. Doses were formulated in water containing 2% 1-hydroxypropyl methylcellulose (50 centipoises viscosity), 1% benzyl alcohol, and 0.6% Tween 80 (all obtained from Sigma Chemical Company). Concentration of drug in the dose solutions was 5, 15, and 50 mg/ml for the 10, 30, and 100 mg/kg doses, respectively, and was verified by liquid chromatography (LC). The 5 mg/ml dose was a clear solution and the higher concentrations were a translucent suspension. Dose volumes were 2.0 ml/kg. At various times after dosing, samples of blood were obtained by cardiac puncture with heparinized syringes, and plasma was prepared by centrifugation. Brains of rats were surgically excised, and all samples were frozen at −20° C. until analysis.
Aliquots of plasma (0.05 or 0.5 ml) were mixed with internal standard (50 μl of methanol containing 5 μg/ml a monofluoro analog of nepicastat, and 5 mg/ml dithiothreitol). Samples were mixed with 200 mM sodium phosphate buffer, pH 7.0, (0.5 ml) and extracted with 3 ml of ethyl acetate/hexane (1/1, v/v). The organic phase containing analytes was back extracted with 250 μl of 250 mM acetic acid and 100 μl aliquots of the aqueous phase were assayed by LC. The LC system used a Keystone Hypersil BDS 15 cm C8 column at ambient temperature. Mobile phase A was 12.5 mM potassium phosphate, pH 3.0, with 5 mM dodecanesulfonic acid and mobile phase B was acetonitrile. Solvent composition was 40% B and was pumped at a flow rate of 1 ml/min. Detection was by UV absorption at 261 nm. Concentrations of analytes were determined from a standard curve generated from the analysis of plasma from untreated rats fortified with known concentrations of analyte. Plasma concentration data are expressed as μg (free base) per ml.
Brains were rinsed briefly with saline, blotted on a paper towel, then weighed (1.5-2.0 g). Internal standard was added (50 μl of methanol containing 20 μg/ml a monofluoro analog of nepicastat), and brains were homogenized in 5 ml of 200 mM sodium phosphate, pH 7.0, containing 0.5 mg/ml dithiothreitol. Aliquots of homogenate (2 ml) were extracted with 10 ml of ethyl acetate/hexane (1/1, v/v). The organic phase was gently back extracted with 150 μl of 250 mM acetic acid.
Following addition of 100 μl of methanol to the aqueous phase (to disperse any emulsion), 100 μl aliquots were assayed by LC as described for plasma. Level in brain are expressed as μg (free base) per g of brain tissue.
Pharmacokinetic parameters were calculated from mean plasma concentrations. Plasma half-life (T1/2) was calculated as 0.693/β, where β is the elimination rate constant determined by linear regression of the log plasma concentration vs. time data within the terminal linear portion of the data. Areas under the plasma concentration vs. time curve (AUC) from zero to the time of the last quantifiable plasma concentrations were calculated by the trapezoidal rule. AUC from zero to infinity (AUCtotal) was calculated as:
AUCtotal=AUC(0−Clast)+Clastβ where Clast is the last quantifiable plasma concentration.

[2] = tested on: dopamine and norepinephrine levels; assay: 24 hour time course of tissue catecholamines in SHR after a single oral dose; format: in vivo, spontaneously hypertensive rats
Procedure: The purpose of this study was to determine the 24 hours time course of the effects of nepicastat (10 mg/kg) on dopamine and norepinephrine levels in the mesenteric artery following a single oral dose in spontaneously hypertensive rats. Catecholamine levels were measured at 1, 2, 4, 6, 8, 12, 16, and 24 hours after a single oral administration of either nepicastat (10 mg/kg) or vehicle (dH2O; 10 ml/kg).
Sixteen-17 week old, male spontaneous hypertensive rats (SHR) rats weighing 300-400 grams were allowed food and water ad libitum. Animals were weighed and randomly assigned, the afternoon before the study, to one of the following treatment groups (n=9 per group): […] of vehicle (10 ml/kg) to be sacrificed at 1, 2, 4, 6, 8, 12, 16, or 24 hours. nepicastat was synthesized as the hydrochloride salt by the Institute of Organic Chemistry, Syntex Discovery Research and obtained from Syntex Central Compound Inventory. nepicastat was dissolved in vehicle (dH2O) to yield an oral dose that could be administered in repeated volumes of 10 ml/kg. All doses of nepicastat were administered as free base equivalents and prepared the morning of administration. Animals were dosed every […] the morning of sacrifice. At 1, 2, 4, 6, 8, 12, 16 and 24 hours following administration, 9 treated animals and 9 vehicle animals were anesthetized with halothane, decapitated, and the left ventricle and mesenteric artery were rapidly harvested and weighed. The mesenteric artery was put in 0.5 ml of 0.4M perchloric acid in a centrifuge tube and the left ventricle put into an empty cryotube. Both tissues were immediately frozen in liquid nitrogen and stored at −70° C. Mesenteric artery catecholamine levels were determined using HPLC with electrochemical detection. At the time of decapitation, plasma samples were taken by draining blood from the carcass into a tube containing heparin, and centrifuging at 4° C.
Each treatment group was compared to vehicle at each time point. A two way analysis of variance (ANOVA) with effects TRT, HARVEST and their interaction was performed. A one way ANOVA with factor TRT was performed for each harvest time.

[3] = tested on: dopamine and norepinephrine in the left ventricle; assay: Left ventricle catecholamines after two iv doses; format: in vivo, Sprague-Dawley rats; settings: 15 mg/kg iv x2, 12 h apart, 6 h after last
mice = assay: Acute toxicity study, single oral doses; format: in vivo; settings: single oral doses of 250, 1000, or 2500 mg/kg
Procedure: Dose selection was based on an acute toxicity study in which mice were administered single oral doses of 250, 1000, or 2500 mg/kg of Nepicastat.

Cl.NCc1c[nH]c(=S)n1[C@H]1CCc2c(F)cc(F)cc2C1 [nepicastat, (S)-5-Aminomethyl-1-(5,7-difluoro-1,2,3,4-tetrahydronaphth-2-yl)-2,3-dihydro-2-thioxo-1H-imidazole hydrochloride]
concentrations in brain relative to plasma ([1]; 10 mg/kg oral, male rats, from 2 hr following dosing onward): exceeded those in plasma | plasma AUCtotal in female rats relative to male rats (higher by) ([1]; 30 mg/kg oral): 77% | relationship between AUCtotal and dose ([1]; 10-100 mg/kg oral, male rats): linear | half-life ([1]; 10 mg/kg oral, male rats): 1.7 h | half-life ([1]; 30 mg/kg oral, male rats): 2.09 h | half-life ([1]; 100 mg/kg oral, male rats): 3.88 h | duration of increase in dopamine/norepinephrine ratio ([2]; 10 mg/kg oral, mesenteric artery): 12 h | dopamine vs vehicle, mesenteric artery ([2]; 10 mg/kg single oral, 1-24 h): significantly (p<0.05) higher than those of vehicle at the 2 and 6 hr harvest times | dopamine/norepinephrine ratio vs vehicle, mesenteric artery ([2]; 10 mg/kg single oral, 1-24 h): significantly (p<0.05) greater than those of vehicle treated animals at the 1, 2, 4, 6 and 12 hour time points | norepinephrine vs vehicle, mesenteric artery ([2]; 10 mg/kg single oral, 1-24 h): significantly (p<0.05) lower than vehicle only at the 4 hr time point | duration of increase in dopamine/norepinephrine ratio ([2]; 30 mg/kg oral, left ventricle): 24 h | decrease in norepinephrine levels, left ventricle [3]: 51% | increase in dopamine levels, left ventricle [3]: 472% | increase in dopamine/norepinephrine ratio, left ventricle [3]: 1117% | acute toxicity (mice): Clinical signs of toxicity and death occurred at 1000 and 2500 mg/kg
